Source: the NIST ThermoML archive (doi:10.1007/s10765-011-0995-x)

Tests used:
[1] = refractive index (Na D-line) (dimensionless); xn = mol fraction of the nth substance listed; details: 101 kPa, Liquid, Standard Abbe refractometry
[2] = xn = mol fraction of the nth substance listed; details: 101 kPa, Liquid; for speed of sound: Pulse-echo method

Cc1ccc(Cl)cc1 [4-chlorotoluene] + CCCCCCCCCCO
Details | mass density, [2] [kg/m3] | refractive index, [1] | speed of sound, [2] [m/s] | viscosity, [2] [mPa·s]
298.15 K, x1 = 0.0718 | 837.82 | 1.4376 | 1373.1 | 9.725
298.15 K, x1 = 0.1353 | 848.32 | 1.4405 | 1366.4 | 8.154
298.15 K, x1 = 0.1976 | 859.01 | 1.4437 | 1359.4 | 6.842
298.15 K, x1 = 0.2703 | 872.09 | 1.4477 | 1350.9 | 5.561
298.15 K, x1 = 0.341 | 885.46 | 1.4519 | 1342.3 | 4.546
298.15 K, x1 = 0.4103 | 899.31 | 1.4566 | 1333.9 | 3.733
298.15 K, x1 = 0.482 | 914.52 | 1.4618 | 1325 | 3.045
298.15 K, x1 = 0.5531 | 930.57 | 1.4676 | 1316.5 | 2.495
298.15 K, x1 = 0.6234 | 947.55 | 1.4738 | 1308.6 | 2.058
298.15 K, x1 = 0.7045 | 968.72 | 1.4818 | 1300.2 | 1.654
298.15 K, x1 = 0.7497 | 981.35 | 1.4866 | 1296.1 | 1.472
298.15 K, x1 = 0.8196 | 1002.21 | 1.4947 | 1291 | 1.239
298.15 K, x1 = 0.8907 | 1025.23 | 1.5035 | 1288 | 1.047
298.15 K, x1 = 0.9556 | 1048.23 | 1.5124 | 1287.5 | 0.907
298.15 K, x1 = 1 | 1065.11 | 1.5188 | 1289.1 | 0.828
303.15 K, x1 = 0.0718 | 834.11 | 1.4357 | 1357.3 | 8.053
303.15 K, x1 = 0.1353 | 844.43 | 1.4387 | 1350.1 | 6.766
303.15 K, x1 = 0.1976 | 854.95 | 1.4418 | 1342.7 | 5.705
303.15 K, x1 = 0.2703 | 867.83 | 1.4458 | 1333.7 | 4.658
303.15 K, x1 = 0.341 | 881.03 | 1.4501 | 1324.7 | 3.825
303.15 K, x1 = 0.4103 | 894.71 | 1.4547 | 1315.9 | 3.162
303.15 K, x1 = 0.482 | 909.75 | 1.46 | 1307 | 2.608
303.15 K, x1 = 0.5531 | 925.66 | 1.4657 | 1298.4 | 2.157
303.15 K, x1 = 0.6234 | 942.5 | 1.4719 | 1290.5 | 1.798
303.15 K, x1 = 0.7045 | 963.53 | 1.4798 | 1282.3 | 1.472
303.15 K, x1 = 0.7497 | 976.09 | 1.4846 | 1278.3 | 1.325
303.15 K, x1 = 0.8196 | 996.85 | 1.4926 | 1273 | 1.134
303.15 K, x1 = 0.8907 | 1019.78 | 1.5015 | 1269.5 | 0.972
303.15 K, x1 = 0.9556 | 1042.69 | 1.5104 | 1269.1 | 0.85
303.15 K, x1 = 1 | 1059.51 | 1.5166 | 1271 | 0.784
308.15 K, x1 = 0.0718 | 830.35 | 1.4337 | 1338.2 | 6.713
308.15 K, x1 = 0.1353 | 840.48 | 1.4367 | 1330.8 | 5.652
308.15 K, x1 = 0.1976 | 850.84 | 1.4398 | 1323.1 | 4.769
308.15 K, x1 = 0.2703 | 863.56 | 1.4439 | 1313.8 | 3.909
308.15 K, x1 = 0.341 | 876.62 | 1.4481 | 1304.8 | 3.23
308.15 K, x1 = 0.4103 | 890.19 | 1.4527 | 1295.9 | 2.678
308.15 K, x1 = 0.482 | 905.12 | 1.458 | 1286.9 | 2.224
308.15 K, x1 = 0.5531 | 920.91 | 1.4637 | 1278.3 | 1.851
308.15 K, x1 = 0.6234 | 937.62 | 1.4698 | 1270.5 | 1.558
308.15 K, x1 = 0.7045 | 958.46 | 1.4776 | 1262.5 | 1.289
308.15 K, x1 = 0.7497 | 970.92 | 1.4824 | 1258.5 | 1.166
308.15 K, x1 = 0.8196 | 991.5 | 1.4902 | 1253.9 | 1.008
308.15 K, x1 = 0.8907 | 1014.28 | 1.499 | 1250.7 | 0.875
308.15 K, x1 = 0.9556 | 1037.1 | 1.5078 | 1251 | 0.781
308.15 K, x1 = 1 | 1053.9 | 1.5138 | 1253.1 | 0.73

Cc1ccccc1Cl [2-chlorotoluene] + CCCCCCCCCCO
Details | mass density, [2] [kg/m3] | refractive index, [1] | speed of sound, [2] [m/s] | viscosity, [2] [mPa·s]
298.15 K, x1 = 0.0734 | 838.4 | 1.4377 | 1373.9 | 10
298.15 K, x1 = 0.1537 | 852.15 | 1.4413 | 1366.5 | 8.277
298.15 K, x1 = 0.2064 | 861.61 | 1.444 | 1361.3 | 7.283
298.15 K, x1 = 0.2747 | 874.4 | 1.4479 | 1354.2 | 6.13
298.15 K, x1 = 0.345 | 888.32 | 1.4524 | 1346.6 | 5.101
298.15 K, x1 = 0.4107 | 902.06 | 1.4569 | 1339.4 | 4.289
298.15 K, x1 = 0.489 | 919.52 | 1.4628 | 1330.9 | 3.477
298.15 K, x1 = 0.5555 | 935.39 | 1.4685 | 1323.8 | 2.906
298.15 K, x1 = 0.6158 | 950.72 | 1.4741 | 1317.6 | 2.468
298.15 K, x1 = 0.6813 | 968.52 | 1.4806 | 1311.5 | 2.075
298.15 K, x1 = 0.7475 | 987.82 | 1.4878 | 1306 | 1.742
298.15 K, x1 = 0.8205 | 1010.87 | 1.4966 | 1301.2 | 1.446
298.15 K, x1 = 0.884 | 1032.61 | 1.505 | 1298.7 | 1.235
298.15 K, x1 = 0.9469 | 1056.04 | 1.514 | 1298.5 | 1.062
298.15 K, x1 = 1 | 1077.41 | 1.5219 | 1301.2 | 0.943
303.15 K, x1 = 0.0734 | 834.73 | 1.4359 | 1358.4 | 8.289
303.15 K, x1 = 0.1537 | 848.3 | 1.4394 | 1350.5 | 6.862
303.15 K, x1 = 0.2064 | 857.65 | 1.4423 | 1344.9 | 6.042
303.15 K, x1 = 0.2747 | 870.31 | 1.4462 | 1337.3 | 5.103
303.15 K, x1 = 0.345 | 884.08 | 1.4505 | 1329.3 | 4.266
303.15 K, x1 = 0.4107 | 897.72 | 1.4549 | 1321.7 | 3.603
303.15 K, x1 = 0.489 | 915.05 | 1.4608 | 1312.7 | 2.952
303.15 K, x1 = 0.5555 | 930.83 | 1.4664 | 1305.2 | 2.486
303.15 K, x1 = 0.6158 | 946.09 | 1.4719 | 1298.8 | 2.133
303.15 K, x1 = 0.6813 | 963.84 | 1.4784 | 1292.5 | 1.806
303.15 K, x1 = 0.7475 | 983.1 | 1.4855 | 1286.9 | 1.538
303.15 K, x1 = 0.8205 | 1006.13 | 1.4941 | 1282.3 | 1.294
303.15 K, x1 = 0.884 | 1027.9 | 1.5023 | 1280 | 1.124
303.15 K, x1 = 0.9469 | 1051.38 | 1.5111 | 1280.6 | 0.984
303.15 K, x1 = 1 | 1072.83 | 1.5189 | 1284.1 | 0.885
308.15 K, x1 = 0.0734 | 831.1 | 1.4339 | 1339.3 | 6.889
308.15 K, x1 = 0.1537 | 844.55 | 1.4378 | 1330.9 | 5.734
308.15 K, x1 = 0.2064 | 853.84 | 1.4406 | 1324.9 | 5.078
308.15 K, x1 = 0.2747 | 866.4 | 1.4445 | 1316.8 | 4.313
308.15 K, x1 = 0.345 | 880.08 | 1.4489 | 1308.2 | 3.637
308.15 K, x1 = 0.4107 | 893.62 | 1.4534 | 1300 | 3.08
308.15 K, x1 = 0.489 | 910.82 | 1.4592 | 1290.6 | 2.528
308.15 K, x1 = 0.5555 | 926.51 | 1.4648 | 1283.1 | 2.134
308.15 K, x1 = 0.6158 | 941.68 | 1.4702 | 1276.7 | 1.837
308.15 K, x1 = 0.6813 | 959.32 | 1.4767 | 1270.8 | 1.566
308.15 K, x1 = 0.7475 | 978.5 | 1.4839 | 1266.1 | 1.338
308.15 K, x1 = 0.8205 | 1001.49 | 1.4924 | 1262.5 | 1.135
308.15 K, x1 = 0.884 | 1023.23 | 1.5005 | 1261.6 | 0.995
308.15 K, x1 = 0.9469 | 1046.71 | 1.5092 | 1262.2 | 0.879
308.15 K, x1 = 1 | 1068.24 | 1.5169 | 1266.1 | 0.805
